Measurements reported in patent US20040180082A1, “Submicron-liposome containing triterpenoid and a method for preparing the same” (AMOREPACIFIC CORPORATION, priority 2002, published 2004).

Experiment: Wide angle X-ray diffraction of frozen-dried liposome
Assay type: physicochemical
Conditions: 2θ value at maximum diffraction no more increasing; FIGS. 2 and 3
Procedure: The structures and the crystallinities (crystalline property) of the liposome were analyzed with powder XRD equipped with wide-angle diffractometer (Rigaku/USA, D/max-RB) using Cu-Kα (λ=1.54 Å) ray. The oleanolic acid (OA) and liposome prepared in Examples 1, 3, 4, 5 and 6 and frozen-dried were analyzed by X-ray diffraction in wide-angle (θ=2-50°), and the structures of hydrocarbon chains and the molecular distances of oleanolic acid (OA) crystals were determined by the result of the X-ray diffraction. […] Diffractions in a wide range of near 20° were observed because lipids formed smectic (lamellar) liquid-crystal phase, which correspond to the distances between lipid molecules.

## CC1(C)CC[C@]2(C(=O)O)CC[C@]3(C)C(=CC[C@@H]4[C@@]5(C)CC[C@H](O)C(C)(C)[C@@H]5CC[C@]43C)[C@@H]2C1 [OA, oleanolic acid]
  content of OA at which OA is saturated in the bi-layer of the liposome: 25.4 mole %
